# Counter-ions that a name gives are not always drawn.
# Molecular target: T1, recombinant human LTA4 hydrolase (rhLTA4H) (Homo sapiens, UniProt P09960)
# T1 construct: made in house; host or cells: Spodoptera frugiperda (Sf-9) cells, baculovirus (pFastBac1)
# T1 sequence (P09960 1-611): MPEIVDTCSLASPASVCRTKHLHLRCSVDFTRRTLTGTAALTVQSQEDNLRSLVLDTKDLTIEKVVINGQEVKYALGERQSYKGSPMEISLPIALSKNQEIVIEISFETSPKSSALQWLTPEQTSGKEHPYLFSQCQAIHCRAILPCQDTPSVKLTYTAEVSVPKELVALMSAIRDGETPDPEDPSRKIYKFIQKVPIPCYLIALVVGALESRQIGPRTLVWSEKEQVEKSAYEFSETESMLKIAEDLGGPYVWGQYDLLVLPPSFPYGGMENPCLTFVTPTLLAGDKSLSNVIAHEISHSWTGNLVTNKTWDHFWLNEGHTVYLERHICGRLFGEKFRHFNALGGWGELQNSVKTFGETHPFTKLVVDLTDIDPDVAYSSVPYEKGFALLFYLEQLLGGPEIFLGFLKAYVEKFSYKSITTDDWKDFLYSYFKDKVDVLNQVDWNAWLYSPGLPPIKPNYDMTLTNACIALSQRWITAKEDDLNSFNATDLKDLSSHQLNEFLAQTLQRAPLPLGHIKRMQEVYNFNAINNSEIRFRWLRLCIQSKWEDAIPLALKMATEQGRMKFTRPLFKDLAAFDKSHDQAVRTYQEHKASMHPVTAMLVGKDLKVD
# Experiment: Recombinant human LTA4 hydrolase assay for LTA4 hydrolase inhibitor activity
# Assay type: biochemical
# Conditions: rhLTA4H, LTB4 by immunoassay; single determination or average of two or more; mark after value = form tested: ′ free base, ″ hydrochloride, ^ formate; read-out: IC50
# Description: Assay 1: Recombinant Human LTA4 Hydrolase Assay for LTA4 Hydrolase Inhibitor Activity
# Compounds of the present invention were tested for LTA4 hydrolase inhibitor activity against recombinant human LTA4 hydrolase (rhLTA4H). Vectors were prepared and used to express rhLTA4H essentially as follows: LTA4 hydrolase encoding DNA was amplified by polymerase chain reaction (PCR) using a human placental cDNA library as a template. […] The amplified 1.9 kb DNA fragment encoding LTA4 hydrolase was isolated and cloned into the pFastBac1 vector (Invitrogen). Recombinant baculovirus was generated as described by the manufacturer, and used to infect Spodoptera frugiperda (Sf-9) cells. […] The purified enzyme solution was adjusted to contain 0.29 mg/mL LTA4 hydrolase, 50 mM Tris (pH 8.0), 150 mM NaCl, 5 mM dithiothreitol, 50% glycerol, and EDTA-free Complete protease inhibitor cocktail (Roche).
# LTA4 substrate was prepared from the methyl ester of LTA4 (Cayman Chemical) by treatment with 67 equiv of NaOH under nitrogen at rt for 40 min. The LTA4 substrate in its free acid form was kept frozen at −80° C. until needed. Each compound was diluted to different concentrations in assay buffer (from Assay Designs) containing 10% DMSO. A 25-μL aliquot of each compound dilution was incubated for 10 min at rt with an equal volume of assay buffer containing 10 ng of recombinant human LTA4H. The solution was then adjusted to 200 μL with assay buffer. […] Each reaction was carried out at rt for 30 min. The reaction was stopped by diluting 10 μL of the reaction mixture with 200 μL of assay buffer. LTB4 was quantified in the diluted sample by a commercially available enzyme-linked immunoassay (Cayman Chemical Co.), as recommended by the manufacturer. Positive controls, under essentially identical conditions but without addition of an inhibitor compound, and negative controls, containing all assay components except enzyme, were routinely run in each experiment. IC50 values were determined by nonlinear regression of the activity data at different compound concentrations using Graphpad Prism 4.0, one site binding competition.
# The values presented here are the result of a single determination or an average of two or more determinations. Compounds that were not tested are indicated as such by a “NT” designation.
row,Structure (SMILES),IC50
1,"O=C(NCc1coc2cc(Oc3nc4ncccc4s3)ccc12)[C@@H]1C[C@@H]2CC[C@H]1C2 (relative stereo) [Example 389, endo-Bicyclo[2.2.1]heptane-2-carboxylic acid [6-(thiazolo[4,5-b]pyridin-2-yloxy)-benzofuran-3-ylmethyl]-amide]",120 nM
2,"c1ccc2sc(Oc3ccc4[nH]cc(CN5CCCC5)c4c3)nc2c1 [Example 9, 2-(3-Pyrrolidin-1-ylmethyl-1H-indol-5-yloxy)-benzothiazole]",591 nM
3,"c1ccc2sc(Oc3ccc4[nH]cc(CN5CCCCC5)c4c3)nc2c1 [Example 10, 2-(3-Piperidin-1-ylmethyl-1H-indol-5-yloxy)-benzothiazole]",415 nM
4,"c1ccc2sc(Oc3ccc4[nH]cc(CN5CCOCC5)c4c3)nc2c1 [Example 11, 2-(3-Morpholin-4-ylmethyl-1H-indol-5-yloxy)-benzothiazole]",1400 nM
5,"c1ccc2sc(Oc3ccc4c(CN5CCc6sc7ccccc7c6C5)c[nH]c4c3)nc2c1 [Example 39, 2-[6-(Benzothiazol-2-yloxy)-1H-indol-3-ylmethyl]-1,2,3,4-tetrahydro-benzo[4,5]thieno[3,2-c]pyridine formate]",275 nM
6,"CC(=O)N(CC(=O)O)[C@H]1C[C@H]2CC[C@@H](C1)N2Cc1c[nH]c2cc(Oc3nc4ccccc4s3)ccc12 [Example 48, meso-endo-(Acetyl-{8-[6-(benzothiazol-2-yloxy)-1H-indol-3-ylmethyl]-8-aza-bicyclo[3.2.1]oct-3-yl}-amino)-acetic acid]",679 nM
7,"Clc1cnc2nc(Oc3ccc4c(CN5CCOCC5)c[nH]c4c3)sc2c1 [Example 59, 6-Chloro-2-(3-morpholin-4-ylmethyl-1H-indol-6-yloxy)-thiazolo[4,5-b]pyridine]",111 nM
8,"Fc1cnc2sc(Oc3ccc4c(CN5CCOCC5)c[nH]c4c3)nc2c1 [Example 60, 6-Fluoro-2-(3-morpholin-4-ylmethyl-1H-indol-6-yloxy)-thiazolo[5,4-b]pyridine]",169 nM
9,"Cn1cc(CN2CCOCC2)c2ccc(Oc3nc4ccccc4s3)cc21 [Example 61, 2-(1-Methyl-3-morpholin-4-ylmethyl-1H-indol-6-yloxy)-benzothiazole]",610 nM
10,"CCn1c(CN2CCCCC2)cc2cc(Oc3nc4ccccc4s3)ccc21 [Example 62, 2-(1-Ethyl-2-piperidin-1-ylmethyl-1H-indol-5-yloxy)-benzothiazole]",382 nM
11,"CCn1c(CN2CCOCC2)cc2cc(Oc3nc4ccccc4s3)ccc21 [Example 63, 2-(1-Ethyl-2-morpholin-4-ylmethyl-1H-indol-5-yloxy)-benzothiazole]",1640 nM
12,"O=C(O)C1CCN(CCc2c[nH]c3ccc(Oc4nc5ccccc5s4)cc23)CC1 [Example 73, 1-{2-[5-(Benzothiazol-2-yloxy)-1H-indol-3-yl]-ethyl}-piperidine-4-carboxylic acid]",3460 nM
13,"c1ccc2sc(Oc3ccc4[nH]cc(CCN5CCCCC5)c4c3)nc2c1 [Example 74, 2-[3-(2-Piperidin-1-yl-ethyl)-1H-indol-5-yloxy]-benzothiazole]",2030 nM
14,"NC(=O)C1CCN(CCc2c[nH]c3ccc(Oc4nc5ccccc5s4)cc23)CC1 [Example 75, 1-{2-[5-(Benzothiazol-2-yloxy)-1H-indol-3-yl]-ethyl}-piperidine-4-carboxylic acid amide]",714 nM
15,"O=C(O)CC1CCN(Cc2cc3ccc(Oc4nc5ccccc5s4)cc3o2)CC1 [Example 78, {1-[6-(Benzothiazol-2-yloxy)-benzofuran-2-ylmethyl]-piperidin-4-yl}-acetic acid formate]",226 nM
16,"O=C(O)CN1CCN(Cc2cc3ccc(Oc4nc5ccccc5s4)cc3o2)CC1 [Example 79, {4-[6-(Benzothiazol-2-yloxy)-benzofuran-2-ylmethyl]-piperazin-1-yl}-acetic acid formate]",460 nM
17,"c1ccc2sc(Oc3ccc4oc(CN5CCCCC5)cc4c3)nc2c1 [Example 82, 2-(2-Piperidin-1-ylmethyl-benzofuran-5-yloxy)-benzothiazole formate]",190 nM
18,"Fc1cccc2sc(Oc3ccc4oc(CN5CCCCC5)cc4c3)nc12 [Example 84, 4-Fluoro-2-(2-piperidin-1-ylmethyl-benzofuran-5-yloxy)-benzothiazole formate]",236 nM
19,"c1cnc(OC2CCN(Cc3cc4cc(Oc5nc6ncccc6s5)ccc4o3)CC2)nc1 [Example 89, 2-{2-[4-(Pyrimidin-2-yloxy)-piperidin-1-ylmethyl]-benzofuran-5-yloxy}-thiazolo[4,5-b]pyridine]",149 nM
20,"c1cnc2nc(Oc3ccc4oc(CN5CCOCC5)cc4c3)sc2c1 [Example 97, 2-(2-Morpholin-4-ylmethyl-benzofuran-5-yloxy)-thiazolo[4,5-b]pyridine]",194 nM
21,"C[C@H]1COCCN1Cc1cc2cc(Oc3nc4ncccc4s3)ccc2o1 [Example 98, (3S)-2-[2-(3-Methyl-morpholin-4-ylmethyl)-benzofuran-5-yloxy]-thiazolo[4,5-b]pyridine]",153 nM
22,"O=C1CCCN1C1CCN(Cc2cc3ccc(Oc4nc5ncccc5s4)cc3o2)CC1 [Example 108, 1-{1-[6-(Thiazolo[4,5-b]pyridin-2-yloxy)-benzofuran-2-ylmethyl]-piperidin-4-yl}-pyrrolidin-2-one formate]",145 nM
23,"c1cnc2nc(Oc3ccc4cc(CN5C[C@@H]6C[C@H]5CO6)oc4c3)sc2c1 [Example 109, (1S,4S)-2-[2-(2-Oxa-5-aza-bicyclo[2.2.1]hept-5-ylmethyl)-benzofuran-6-yloxy]-thiazolo[4,5-b]pyridine formate]",186 nM
24,"c1cnc2nc(Oc3ccc4cc(CN5CC6COCC6C5)oc4c3)sc2c1 (stereo not drawn) [Example 110, 2-[2-(Tetrahydro-furo[3,4-c]pyrrol-5-ylmethyl)-benzofuran-6-yloxy]-thiazolo[4,5-b]pyridine formate]",207 nM
25,"FC1CCN(Cc2cc3cc(Oc4nc5ncccc5s4)ccc3o2)CC1 [Example 111, 2-[2-(4-Fluoro-piperidin-1-ylmethyl)-benzofuran-5-yloxy]-thiazolo[4,5-b]pyridine]",281 nM
26,"c1cnc2nc(Oc3ccc4oc(CN5CC6COCC6C5)cc4c3)sc2c1 (stereo not drawn) [Example 113, 2-[2-(Tetrahydro-furo[3,4-c]pyrrol-5-ylmethyl)-benzofuran-5-yloxy]-thiazolo[4,5-b]pyridine]",283 nM
27,"c1cnc2nc(Oc3ccc4cc(CN5CCOCC5)oc4c3)sc2c1 [Example 115, 2-(2-Morpholin-4-ylmethyl-benzofuran-6-yloxy)-thiazolo[4,5-b]pyridine]",327 nM
28,"NC(=O)N1C[C@@H]2C[C@H]1CN2Cc1cc2ccc(Oc3nc4ncccc4s3)cc2o1 [Example 117, (1S,4S)-5-[6-(Thiazolo[4,5-b]pyridin-2-yloxy)-benzofuran-2-ylmethyl]-2,5-diaza-bicyclo[2.2.1]heptane-2-carboxylic acid amide]",118 nM
29,"CC(=O)NC1CCN(Cc2cc3ccc(Oc4nc5ncccc5s4)cc3o2)C1 (stereo not drawn) [Example 120, N-(1-{[6-([1,3]thiazolo[4,5-b]pyridin-2-yloxy)-1-benzofuran-2-yl]methyl}pyrrolidin-3-yl)acetamide formate]",145 nM
30,"CC(=O)N1C[C@@H]2C[C@H]1CN2Cc1cc2cc(Oc3nc4cccnc4s3)ccc2o1 [Example 121, (1S,4S)-1-{5-[5-(Thiazolo[5,4-b]pyridin-2-yloxy)-benzofuran-2-ylmethyl]-2,5-diaza-bicyclo[2.2.1]hept-2-yl}-ethanone]",488 nM

# Source: patent US8399465B2, “Compounds with two fused bicyclic heteroaryl moieties as modulators of leukotriene A4 hydrolase” (Janssen Pharmaceutica NV, priority 2009, dated 2013)
